The test system of data set [1] is prostatic cancer cell line DU-145. The data set is described as follows: Cell proliferation inhibition assay, DU-145 (Cell Titer-Glo, 5 days). It counts as cell-based. The settings on record: Homo sapiens, 120 h; DU-145, 5 days. A general note: In ATP-based viability assays light output follows the ATP content of the culture.
Data set [2] relates to lung adenocarcinoma cell line SW-1271. The data set is described as follows: Cell proliferation inhibition assay, SW-1271 (Cell Titer-Glo, 5 days). It counts as cell-based. Particulars: Homo sapiens, SW1271, 120 h; SW-1271, 5 days. The text has this:
(§1) This assay was used to study the effect of PARP-1 inhibitor alone for tumor suppression. Breast cancer susceptibility genes BRCA1 and BRCA2 play an important role in homologous recombination DNA repair. BRCA-mutant (or deficient) cells represent homologous recombination repair defect, if PARP-mediated DNA repair is inhibited at the same time, DNA damage in cells may be increased, resulting in chromatin abnormality or even cell death.
(§2) BRCA-mutant (or deficient) human prostatic cancer cell line DU-145, lung adenocarcinoma cell line SW-1271, as well as breast cancer cell lines MDA-MB-436 and MDA-MB-361 were selected for the assay, PARP inhibitor was used alone to evaluate its damage effect on cells. The inhibition effect of the compound was expressed by IC50.
(§3) Prostatic cancer cell line DU-145 grown in EMEM supplement with 10% FBS was seeded in 96 well tissue culture plates (2000 cells/well). Lung adenocarcinoma cell line SW-1271 grown in L15 supplement with 10% FBS was seeded in 96 well tissue culture plates (4000 cells/well), and breast cancer cell line MDA-MB-361 grown in L15 supplement with 20% FBS was seeded in 96 well tissue culture plates (4000 cells/well). Test compounds (10 mM stock solution in DMSO) and reference compound staurosporine (1 mM stock solution in DMSO) were diluted by DMSO for 200 times to obtain the desired final concentration. 0.5 ul compound dilutions were directly added to the cells in 96 well plates, and the cells were incubated at 37° C. for 5 days. HPE control wells were added 1 uM staurosporine dilution, while ZPE wells were added 0.5% DMSO. After 5 days plates were equilibrated to room temperature and 50 ul of Cell Titer-Glo Reagent (Promega) was added to the culture wells. The plates were agitated briefly and luminescence signal was measured with Envision (PerkinElmer). […] IC50 values were calculated with Prism software (Graph Pad, San Diego, Calif., USA) for both test compounds and reference compound staurosporine.

Data set [3] deals with breast cancer cell line MDA-MB-361. The data set is described as follows: Cell proliferation inhibition assay, MDA-MB-361 (Cell Titer-Glo, 5 days). It counts as cell-based. The settings on record: Homo sapiens, 120 h; MDA-MB-361, 5 days; read-out: IC50 MD-MBA-361.
Excerpt: as §1, §2, §3

The nature of data set [4]: Pharmacokinetic test in male SD rats, tail vein injection. It counts as in vivo, rat. The settings on record: for AUC(0-t) / MRT / clearance / half-life / Vd: rat, plasma, iv, 15 mg/kg tail vein injection; for Vd: read-out: Vdss. How it is done:
Male SD rats were used as experimental animals in this test. […] LC-MS/MS method was used to test blood drug concentration, and Winnonlin 6.1 software was used to calculate pharmacokinetic parameters to study and evaluate the pharmacokinetic properties.
12 male SD rats weighed 180-260 g, purchased from Vital River Laboratory Animal Technology Co., Ltd.
0.2 mL blood was collected through jugular vein before dosing and at 5 min, 15 min, 30 min, 1 h, 2 h, 4 h, 8 h, 12 h and 24 h after the dosing, respectively, and put into heparinized tubes. The samples were centrifuged for 10 min at 5500 rpm to separate plasma, and stored at −30° C.
An aliquot of 20 μL of plasma sample was added with 200 μL acetonitrile (containing 5.00 ng/mL verapamil and 50.0 ng/mL glibenclamide as internal standards). The mixture was vortexed for 4 min, and then centrifuged at 3700 rpm for 18 min. An aliquot of 70 μL supernatant was added into 70 μL water, and then vortexed for 4 min. Finally, 10 μL of the mixture was injected into the LC-MS/MS system for analysis.
An aliquot of 30 μL of plasma sample was added with 150 μL acetonitrile (containing 5.00 ng/mL verapamil and 50.0 ng/mL glibenclamide as internal standards). The mixture was vortexed for 5 min, and then centrifuged at 3700 rpm for 18 min. An aliquot of 70 μL supernatant was added into 70 μL water, and then vortexed for 5 min. Finally, 10 μL of the mixture was injected into the LC-MS/MS system for analysis.
Winnonlin 6.1 software was used to calculate pharmacokinetic parameters.

In data set [5] the test system is mice following a two hour occlusion of the MCA. Particulars: intracerebroventricular administration; cited from earlier work.
The subject of data set [6] is rat model of focal cerebral ischemia. Particulars: i.p. 10 mg/kg two hours prior to and two hours after initiation of ischemia; cited from earlier work.
A short description of data set [7]: Solubility test (thermodynamic solubility in pH 7.4 phosphate buffer, HPLC). The data set is classed as physicochemical. How it is done:
In this test, excess amount of test sample was added into pH=7.4 phosphate buffer. Ultrasonic was performed for 30 min until the drug no longer dissolved. The solution was continuously shaked for 24 hours at a constant temperature of 25° C. to achieve a thermodynamic equilibrium of compound, and then the solution was filtrated to get filtrate. Quantitative analysis of compound in filtrate using external standard method is performed according to “Appendix VD High Performance Liquid Chromatography, Part II of Pharmacopeia 2010,” and the sample thermohynamic solubility in pH=7.4 phosphate buffer was determined.
Agilent 1200 LC, Phenomen C18 column (4.6 mm*150 mm, […]), mobile phase: methanol:water (60:40), flow rate: 1 mL/min, column temperature: 25° C., wave length: 230 nm, injection volume: 10 μL
About 30 mg test compound was put in a 10 mL volumetric flask, about 8 mL pH=7.4 phosphate buffer was added and ultrasonic was performed for 30 min, and the solution was shaked for 24 hours in a shaker at a constant temperature of 25° C. The solution was settled for half an hour under 25° C., filtered with 0.45 μm hydrophilic filter. The filtrate was used as test sample. […]
The test solution was injected for three times according to the above chromatographic conditions. The peak area was measured to calculate the corresponding concentration. […]

We go through 7 molecules from patent US9718787B2, “Poly (ADP-ribose) polymerase inhibitor” (CHENGDU DI'AO PHARMACEUTICAL GROUP CO., LTD., priority 2011, dated 2017).

One may read the IC50 as the midpoint of a concentration-inhibition curve. The term AUC(0-t) denotes exposure summed from dosing to a finite time, without extrapolation to infinity. Low values mean low exposure, high ones high exposure. The MRT is the average time that molecules of a dose stay in the body. Usually clearance stands for a measure of how efficiently the substance is removed, as volume per time. For orientation: half-life means the time in which the quantity being followed falls by half.

As to `O=C(c1cc(Cc2n[nH]c(=O)c3ccccc23)ccc1F)N1CCN(C(=O)C2CC2)CC1` [AZD-2281, olaparib], the half-maximal inhibitory concentration (IC50) in data set [1] is 65000 nM. For the same molecule, the IC50 in data set [2] turned out to be 17400 nM. The IC50 in data set [3] is more than 10000 nM. In data set [4] (15 mg/kg i.v.), the exposure entry was “low exposure” and the metabolic stability entry is recorded as “poor metabolic stability”. Besides, in data set [4], the AUC(0-t) was determined as 6440 ng·h/mL, the MRT was found to be 19.8 min, the clearance came to 39.1 mL/min/kg and the half-life is 40.9 min. In data set [4], the Vd came to 0.766 L/kg.
For `O=C(c1cc(Oc2n[nH]c(=O)c3ccccc23)ccc1F)N1CCN(C(=O)C2CCC(F)(F)CC2)CC1` [Compound 107, 4-(3-(4-(4,4-difluorocyclohexanecarbonyl)piperazine-1-carbonyl)-4-fluorophenoxy)2H-phthalazin-1-one], the IC50 in data set [2] was 770 nM; in data set [3], 1900 nM.
In the case of `CN(C)C1(C(=O)N2CCN(C(=O)c3cc(Oc4n[nH]c(=O)c5ccccc45)ccc3F)CC2)CCC1` [Compound 126, 4-(3-(4-(1-(dimethylamino)cyclobutanecarbonyl)piperazine-1-carbonyl)-4-fluorophenoxy)2H-phthalazin-1-one], the IC50 was 1900 nM in data set [1], 1100 nM in data set [2] and 4000 nM in data set [3].
Turning to `NC(=O)c1cccc(N)c1` [Compound 3-AB, 3-aminobenzamide], the “decrease in infarct volume” value in data set [5] was 47%.
For `O=C(c1cc(Oc2n[nH]c(=O)c3ccccc23)ccc1F)N1CCN(C(=O)N2CCCCC2)CC1` [Compound 85, 4-(4-fluoro-3-(4-(piperidine-1-carbonyl)piperazine-1-carbonyl)phenoxy)-2H-phthalazin-1-one], the IC50 stood at 3700 nM in data set [1], 1500 nM in data set [2] and 2400 nM in data set [3].
In the case of `O=C1NCCc2c(OCCCCN3CCCCC3)cccc21` [DPQ, 3,4-dihydro-5-[4-(1-piperidinyl)butoxy]-1 (2H)-isoquinolinone], the “reduction in infarct volume” value in data set [6] was 54%.
`CN(C)C1(C(=O)N2CCN(C(=O)c3cc(Oc4n[nH]c(=O)c5ccccc45)ccc3F)CC2)CC1` [Compound 124, 4-(3-(4-(1-(dimethylamino)cyclopropanecarbonyl)piperazine-1-carbonyl)-4-fluorophenoxy)2H-phthalazin-1-one] came in with an IC50 in data set [1] of 2700 nM. For the same molecule, the IC50 in data set [2] was found to be 1600 nM. In addition, in data set [7], the “water solubility relative to AZD-2281” value is recorded as “enhanced by almost twice”. Also, the “pharmacokinetic properties relative to AZD-2281” value in data set [4] (15 mg/kg i.v.) was “significantly superior to AZD-2281”. In addition, in data set [4], the exposure AUC(0-t) is 10100 ng·h/mL, the MRT stood at 22.4 min, the clearance worked out at 28 mL/min/kg and the half-life is 185 min. The Vd in data set [4] is 0.665 L/kg.
